Where a name gives a salt, the structure may show the parent alone. Read-outs that look alike come from different tables or passages of the source.
What was measured:
HepG2 cells [1] = settings: cited from earlier work; for IC50: read-out: MMP assays IC50 (µM), qHTS-HepG2
HepG2 cells [2] = experiment: cells; settings: Homo sapiens; for IC50: HepG2, read-out: MMP assays IC50 (µM) HepG2; for Emax: HepG2, read-out: MMP assays efficacy (%) HepG2
rat primary hepatocytes [3] = experiment: MMP assay in rat primary hepatocytes; settings: for IC50: read-out: MMP assays IC50 (µM) Rat Hepatocytes
rat primary hepatocytes [4] = system: rat primary hepatocytes

| SMILES | MMP assays efficacy (%) qHTS-HepG2 (HepG2 cells [1]) [%] | IC50 (HepG2 cells [1]) [µM] | IC50 (HepG2 cells [2]) [µM] | Emax (HepG2 cells [2]) [%] | MMP assays IC50 (µM) Rat Hepatocytes (rat primary hepatocytes [3]) | MMP assays efficacy (%) Rat Hepatocytes (rat primary hepatocytes [4]) | IC50 (rat primary hepatocytes [3]; Rattus norvegicus, Hepatocyte) [µM] | IC50 (rat primary hepatocytes [3]) [µM] |
| --- | --- | --- | --- | --- | --- | --- | --- | --- |
| C[C@@H]1O[C@@H](O[C@H]2C[C@@H](O)[C@]3(CO)[C@H]4[C@H](O)C[C@]5(C)[C@@H](C6=CC(=O)OC6)CC[C@]5(O)[C@@H]4CC[C@]3(O)C2)[C@H](O)[C@H](O)[C@H]1O [Ouabain] | -88±7 | 0.18 | 0.22 | 94 | inactive | inactive | – | – |
| CC(=O)Oc1ccc(C2(c3ccc(OC(C)=O)cc3)C(=O)Nc3ccccc32)cc1 [Oxyphenisatin acetate] | -63±8 | 5.49 ± 4.6 | 17.3 | 118 | – | -71±28% | 20.6 ± 1.68 | – |
| OC1(c2ccc(Cl)c(C(F)(F)F)c2)CCN(CCCC(c2ccc(F)cc2)c2ccc(F)cc2)CC1 [Penfluridol] | -88±15 | 33.5 | 27.5 | 68 | – | -64±25% | 23.2 ± 6.57 | – |
| Oc1c(Br)c(Br)c(Br)c(Br)c1Br [Pentabromophenol] | -104±8 | 3.46 ± 0.99 | 7.94 | 106 | – | -93±13% | 4.98 ± 2.48 | – |
| Oc1c(Cl)c(Cl)c(Cl)c(Cl)c1Cl [Pentachlorophenol] | -97±20 | 3.09 ± 0.6 | 8.9 | 99 | – | -119±31% | 4.17 ± 0.75 | – |
| NS(=O)(=O)C(F)(F)C(F)(F)C(F)(F)C(F)(F)C(F)(F)C(F)(F)C(F)(F)C(F)(F)F [Perfluorooctanesulfonamide] | -94±15 | 2.43 ± 0.81 | 2.51 | 101 | – | -118±45% | 1.47 ± 0.1 | – |
| COC(=O)Nc1cccc(OC(=O)Nc2cccc(C)c2)c1 [Phenmedipham] | -101±10 | 4.41 ± 2.02 | 7.08 | 107 | – | -95±20% | 19.4 ± 9.11 | – |
| O=C1OC(c2ccc(O)cc2)(c2ccc(O)cc2)c2ccccc21 [Phenolphthalein] | -103±24 | 42.8 ± 2.74 | 25.1 | 132 | – | -98±24% | 39.5 ± 16.9 | – |
| CC(COc1ccccc1)N(CCCl)Cc1ccccc1 (centres unmarked) [Phenoxybenzamine hydrochloride] | -99±7 | 48.8 ± 9.17 | 35.5 | 63 | inactive | inactive | – | – |
| S=C=Nc1ccccc1 [Phenyl isothiocyanate] | -103±16 | 43 ± 14.8 | 35.5 | 134 | inactive | inactive | – | – |
| O=C(CCc1ccc(O)cc1)c1c(O)cc(O)cc1O [Phloretin] | -107±12 | 4.26 ± 1.22 | 11.2 | 100 | – | -74±26% | 10.6 ± 4.98 | – |
| COc1cccc2c1C(=O)c1c(O)c3c(c(O)c1C2=O)C[C@@](O)(C(=O)CO)C[C@@H]3O[C@H]1C[C@H](N)[C@H](O[C@@H]2CCCCO2)[C@H](C)O1 [Pirarubicin] | -68±19 | 0.6 ± 0.46 | 0.69 | 53 | – | -39±8% | 0.03 | – |
| CN1C(C(=O)Nc2ccccn2)=C(O)c2ccccc2S1(=O)=O [Piroxicam] | -109±18 | 8.21 ± 1.71 | 5.88 | 103 | – | -84±3% | 4.79 ± 1.53 | – |
| CCCN(CCC)c1c([N+](=O)[O-])cc(C(F)(F)F)c(N)c1[N+](=O)[O-] [Prodiamine] | -85±11 | 4.84 ± 0.56 | 8.91 | 93 | – | -95±8% | 25.4 ± 11.7 | – |
| CCCSP(=O)(OCC)Oc1ccc(Br)cc1Cl (centres unmarked) [Profenofos] | -92±20 | 2.54 ± 1.84 | 6.15 | 84 | – | -61±47% | 13.2 ± 3.19 | – |
| CCCN(CC1CC1)c1c([N+](=O)[O-])cc(C(F)(F)F)cc1[N+](=O)[O-] [Profluralin] | -76±20 | 21.7 ± 8.04 | 39.8 | 58 | – | -37±10% | 25.1 ± 35.4 | – |
| CCCOC(=O)c1ccc(O)cc1 [Propylparaben] | -99±4 | 38.6 ± 1.67 | 35.5 | 91 | inactive | inactive | – | – |

| SMILES | MMP assays efficacy (%) qHTS-HepG2 (HepG2 cells [1]) [%] | IC50 (HepG2 cells [1]) [µM] | IC50 (HepG2 cells [2]) [µM] | Emax (HepG2 cells [2]) [%] | MMP assays IC50 (µM) Rat Hepatocytes (rat primary hepatocytes [3]) | MMP assays efficacy (%) Rat Hepatocytes (rat primary hepatocytes [4]) | IC50 (rat primary hepatocytes [3]; Rattus norvegicus, Hepatocyte) [µM] | IC50 (rat primary hepatocytes [3]) [µM] |
| --- | --- | --- | --- | --- | --- | --- | --- | --- |
| C[C@@H]1O[C@@H](O[C@@H]2C=C3CC[C@@H]4[C@H](CC[C@]5(C)[C@@H](c6ccc(=O)oc6)CC[C@]45O)[C@@]3(C)CC2)[C@H](O)[C@H](O)[C@H]1O [Proscillaridin] | -72±4 | 0.09 ± 0.02 | 0.066 | 86 | inactive | inactive | – | – |
| COC(=O)N(OC)c1ccccc1COc1ccn(-c2ccc(Cl)cc2)n1 [Pyraclostrobin] | -116±2 | 6.35 ± 1.92 | 1.26 | 118 | – | -121±32% | 9.04 ± 1.89 | – |
| CCCCCCCCSC(=O)Oc1cc(Cl)nnc1-c1ccccc1 [Pyridate] | -97±17 | 33.1 ± 4.58 | 35.5 | 44 | – | -59±19% | 50.5 ± 8.18 | – |
| O=c1c(O)c(-c2ccc(O)c(O)c2)oc2cc(O)cc(O)c12 [Quercetin] | -94±8 | 2.69 ± 2.26 | 3.16 | 96 | – | -62±28% | – | 15.1 ± 6.79 |
| Oc1ccc(/C=C/c2cc(O)cc(O)c2)cc1 [Resveratrol] | -66±11 | 1.6 ± 0.43 | 3.71 | 33 | inactive | inactive | – | – |
| Cc1cc2nc3c(=O)[nH]c(=O)nc-3n(C[C@H](O)[C@H](O)[C@H](O)CO)c2cc1C [Riboflavin] | -113±7 | 7.02 ± 1.78 | 11.2 | 86 | – | -97±58% | 31.3 ± 8.72 | – |
| Cc1cc(C)c(/C=C2\C(=O)Nc3ccccc32)[nH]1 [SU-5416] | -116±2 | 12.5 ± 1.78 | 13.8 | 115 | – | -83±12% | 11 ± 1.78 | – |
| O=C(Nc1ccccc1)c1ccccc1O [Salicylanilide] | -125±11 | 3.71 ± 1.27 | 3.98 | 101 | – | -91±5% | 29.1 ± 12.2 | – |
| CC1CCCCC1NC(=O)Nc1ccccc1 (centres unmarked) [Siduron] | -73±13 | 41.6 ± 21.1 | 35.5 | 89 | – | -48±7% | 43.9 ± 17.4 | – |
| CO[C@H]1C[C@@H]2CC[C@@H](C)[C@@](O)(O2)C(=O)C(=O)N2CCCC[C@H]2C(=O)O[C@H]([C@H](C)C[C@@H]2CC[C@@H](O)[C@H](OC)C2)CC(=O)[C@H](C)/C=C(\C)[C@@H](O)[C@@H](OC)C(=O)[C@H](C)C[C@H](C)/C=C/C=C/C=C/1C [Sirolimus] | -95±3 | 20.1 ± 2.07 | 17.3 | 95 | – | -61±8% | 20.6 ± 1.68 | – |
| Oc1c(Cl)cc(Cl)cc1Sc1cc(Cl)cc(Cl)c1O [Sodium bithionolate] | -123±11 | 0.91 ± 0.78 | 0.89 | 116 | inactive | inactive | – | – |
| CC(=O)CC(c1ccccc1)c1c(O)c2ccccc2oc1=O (centres unmarked) [Sodium warfarin] | -95±22 | 38.6 ± 12.8 | 35.5 | 65 | – | -77±32% | 35.5 | – |
| CN(C)C(=S)SSC(=S)N(C)C [THIRAM] | -57±29 | – | 24.5 | 66 | – | -96±85% | 16.5 ± 20.3 | – |
| CC1(C)CCC(C)(C)c2cc(NC(=O)c3ccc(C(=O)O)cc3)ccc21 [Tamibarotene] | -128±10 | 25.7 ± 1.05 | 13.8 | 95 | – | -75±57% | 9.06 ± 6.66 | – |
| CCOc1ccccc1OCCN[C@H](C)Cc1ccc(OC)c(S(N)(=O)=O)c1 [Tamsulosin hydrochloride] | -70±8 | 27.2 ± 2.92 | 30.8 | 80 | – | -45±27% | 25.1 ± 8.04 | – |
| NC(=O)N1C(=O)/C(=C(\O)c2cccs2)c2cc(Cl)ccc21 [Tenidap] | -111±5 | 12.5 ± 1.19 | 15.8 | 102 | – | -96±13% | 21.1 ± 7.88 | – |
| CN1C(C(=O)Nc2ccccn2)=C(O)c2sccc2S1(=O)=O [Tenoxicam] | -83±17 | 8.36 ± 1.07 | 6.6 | 69 | – | -65±17% | 4.23 ± 3.79 | – |

Reference: publication PMC6112376, “Comprehensive Analyses and Prioritization of Tox21 10K Chemicals Affecting Mitochondrial Function by in-Depth Mechanistic Studies” (Environmental Health Perspectives, 2018)
